Measured values published in ChEMBL document CHEMBL3714758, “3H-imidazo[4,5-b]pyridin-5-ol derivatives useful in the treatment of GPR81 receptor disorders” (2013).
Calls of active or inactive are those of the source. No cut-off for these calls is given here.

How the values were obtained:
[1] = test system: Mus musculus; assay: Reduction in circulating free fatty acids in food-deprived C57/B16 mouse at 100 mg/kg, ip measured after 30 mins by NEFA assay; format: functional, organism-based
[2] = test system: Adipocyte; assay: Inhibition of lipolysis in Sprague-Dawley rat epididymal adipocytes pre-incubated for 10 mins before theophylline addition followed by further incubation for 3 hrs by microplate reader based assay; format: functional, cell-based
[3] = test system: Rattus norvegicus; assay: Reduction in circulating free fatty acids in food-deprived Sprague-Dawley rat at 1 to 100 mg/kg, po measured after 10 to 240 mins post dose by NEFA assay; format: functional, organism-based

IC50 [2]	SMILES	inhibition [1]	inhibition [3]
	Oc1ccc2ncn(-c3ccccc3C(F)(F)F)c2n1	Active	
	O=C(O)c1cccnc1	Active	
234 nM	Oc1ccc2ncn(-c3ccccc3Cl)c2n1	Active	Active
